Laboratory results: patent US20070142348A1, “Microbicidal, prophylactic and therapeutic effect of ctc-96 on papilloma viruses” (REDOX PHARMACEUTICAL CORPORATION, AUDUBON […] AND […], priority 2003, published 2007)
Where “and” joins values, the source holds several entries; their conditions need not be identical. Equal values may be shown once.

Experiments:
[1] = tested on: Bovine Papillomavirus Type 1 (BPV-1); test: Inhibition of BPV-1 transformation of C127 mouse epithelial cells: exposure of cells pretreated with virus to drug; type: cell-based; settings: CTC-96 5 μg/ml added 5 hours after virus; counted on day 12; duplicate values
Procedure: (§1) Experiments were performed to determine if CTC-96™ can inactivate the ability of bovine papillomavirus type 1 (BPV-1) to morphologically transform C127 mouse epithelial cells in culture. Cell-free stocks of BPV-1 were treated with CTC-96™ or placebo. In order to detect the transforming ability of BPV-1, sub-confluent cultures of C127 mouse cells are infected with a standardized inoculate of BPV-1. For the positive controls, stock virus was added to the culture medium present on the cells. The presence of morphologically transformed foci was counted after 2 weeks and then again at 3 weeks. Controls included non-infected cells (with or without drug) and untreated BPV-1.
To further evaluate the time course of interaction between CTC-96™ and Papillomavirus the following experiment was performed. Virus was put on C127 mouse epithelial cells in culture at time 0 and incubated for 5 hours. Medium was then removed and replaced with medium plus drug. Cells were then re-fed every 2 days and the experiments counted on day 12.

[2] = tested on: Bovine Papillomavirus Type 1 (BPV-1); test: Inhibition of BPV-1 transformation of C127 mouse epithelial cells: exposure of virus to drug prior to infection; type: cell-based; settings: duplicate values
Procedure: as §1
Bovine Papillomavirus Type 1 (BPV-1) was mixed with CTC-96™, incubated for 10 minutes at 37° C. and then added to the cells. It is clear that CTC-96™ can inhibit the appearance of bovine Papillomavirus type 1 (BPV-1) induced transformation of C127 mouse epithelial cells in culture (Table 9).

[3] = tested on: Bovine Papillomavirus Type 1 (BPV-1); test: Inhibition of BPV-1 transformation of C127 mouse epithelial cells: pretreatment and post-treatment combined; type: cell-based
Procedure: as §1
To further clarify the dynamics of CTC-96™ Papillomavirus interaction an experiment was performed to combine exposure of virus to the drug prior to cellular infection and exposure of infected cells to the drug. For this purpose BPV-1 was incubated with either CTC-96™ or placebo, diluted and then added to C127 Mouse Epithelial Cells in culture with the addition of CTC-96™ or placebo (Table 11). Addition of 10 μg/ml or 20 μg/ml CTC-96™ to the cell cultures was toxic to the cells. […] Pre-treatment with 50 μg/ml CTC-96™ but not placebo halved the foci number in the normal medium post-treatment control. Thus a small microbicidal effect is probable even at these low concentrations of CTC-96™. The main activity at these concentrations, however, is post-infection.

HPV-11 = test: Therapeutic activity of CTC-96 ointment on human condylomas induced by HPV-11, HPV-11-infected external human xenograft SCID mouse model; type: in vivo, SCID mice; settings: for Graft Size Growth, Means ± SD: thrice a week for 6 weeks on the graft
Procedure: Two different dose levels of CTC-96™ (1%, 0.1%) in an ointment formulation and the vehicle alone were evaluated. SCID mice were grafted on each side of the dorsum with an HPV-11-infected foreskin fragment. The HPV-11-infected grafts were left to grow for 6 weeks before treatment was started and continued for 6 weeks. During the treatment phase, the drug was administered thrice a week, directly on the graft. Graft length, width, and height were measured every two weeks during the treatment phase. At the end of the study, the animals were sacrificed. The grafts were measured, recovered, and processed for histology. HPV infection in tissue sections is defined by the presence of two out of three of the following features: acanthosis, koilocytosis, or parakeratosis.
The Graft Size Growth (GSG) index was our primary endpoint in this evaluation of CTC-96™. […] However, there is also a marked increase in the variance of the GSG in the high dose CTC-96™ group.
In our analysis, to measure graft size growth we used a composite index that summarizes for each mouse the growth of the two grafts borne by the animal, each from a different foreskin donor. If instead we look at the growth of each individual graft, we can see that the means, medians, or variances of the graft size growth are more alike among the three treatment groups as shown in FIG. 1. The ANOVA fails to show a treatment effect on the growth of the individual grafts.

[4] = pre-treatment 50 μg/ml CTC-96, post-treatment "μg/ml CTC-96" (figure not given)
[5] = pre-treatment 50 μg/ml CTC-96, post-treatment normal medium
[6] = pre-treatment 50 μg/ml CTC-96, post-treatment placebo
[7] = pre-treatment Placebo, post-treatment 5 μg/ml CTC-96

CC(/C=C(/C)[O-])=NCCN=C(C)/C=C(/C)[O-].Cc1ncc[nH]1.Cc1ncc[nH]1.[Br-].[Co+3] [CTC-96]
Number of Transformed Foci, Exp. 1 [1]: 3 and 2
Number of Transformed Foci, Exp. 2 [1]: 3
Number of Transformed Foci at 3 weeks ([2]; CTC-96 0.1 mg/ml mixed with BPV-1, 10 minutes at 37° C.): 68 and 80
Number of Transformed Foci at 3 weeks ([2]; CTC-96 0.2 mg/ml mixed with BPV-1, 10 minutes at 37° C.): 80 and 82
Number of Transformed Foci at 3 weeks ([2]; CTC-96 0.5 mg/ml mixed with BPV-1, 10 minutes at 37° C.): 25 and 40
Focus formation ([3]; addition of 5 μg/ml CTC-96 to the cell cultures): effectively suppressed all focus formation
Toxicity to C127 cell cultures ([3]; addition of 10 μg/ml or 20 μg/ml CTC-96 to the cell cultures): toxic
Number of Transformed Foci, Experiment 3-1 [3, 4]: 0
Number of Transformed Foci, Experiment 3-2 [3, 4]: 0
Number of Transformed Foci, Experiment 3-1 [3, 5]: 71 and 46
Number of Transformed Foci, Experiment 3-2 [3, 5]: 46 and 41
Number of Transformed Foci, Experiment 3-1 [3, 6]: 65 and 61
Number of Transformed Foci, Experiment 3-2 [3, 6]: 39 and 62
Number of Transformed Foci, Experiment 3-1 [3, 7]: 0
Number of Transformed Foci, Experiment 3-2 [3, 7]: 0
Inhibition of the virus by pretreatment of the virus (microbicidal effect) ([3]; pretreatment of BPV-1 with 50 μg/ml CTC-96): 50-60%
Graft Size Growth, Median (HPV-11; CTC-96 0.1% ointment): 60.51%
Graft Size Growth, Means ± SD (HPV-11; CTC-96 0.1% ointment): 64.53 ± 41.92%
Graft Size Growth, Median (HPV-11; CTC-96 1% ointment): 52.03%
Graft Size Growth, Means ± SD (HPV-11; CTC-96 1% ointment): 91.39 ± 127.84%
Effect on the growth of HPV-11-induced papillomas (HPV-11; mouse, in vivo): no detectable effect
